{"source": "paper PMC9918186", "about": "“Interaction of Positively Charged Oligopeptides with Blood Plasma Proteins” (International Journal of Molecular Sciences, 2023)", "key": {"[1]": {"target": "T1, BSA (Bos taurus, UniProt P02769)", "T1 construct": "purchased Sigma Aldrich", "T1 sequence (P02769 25-607)": "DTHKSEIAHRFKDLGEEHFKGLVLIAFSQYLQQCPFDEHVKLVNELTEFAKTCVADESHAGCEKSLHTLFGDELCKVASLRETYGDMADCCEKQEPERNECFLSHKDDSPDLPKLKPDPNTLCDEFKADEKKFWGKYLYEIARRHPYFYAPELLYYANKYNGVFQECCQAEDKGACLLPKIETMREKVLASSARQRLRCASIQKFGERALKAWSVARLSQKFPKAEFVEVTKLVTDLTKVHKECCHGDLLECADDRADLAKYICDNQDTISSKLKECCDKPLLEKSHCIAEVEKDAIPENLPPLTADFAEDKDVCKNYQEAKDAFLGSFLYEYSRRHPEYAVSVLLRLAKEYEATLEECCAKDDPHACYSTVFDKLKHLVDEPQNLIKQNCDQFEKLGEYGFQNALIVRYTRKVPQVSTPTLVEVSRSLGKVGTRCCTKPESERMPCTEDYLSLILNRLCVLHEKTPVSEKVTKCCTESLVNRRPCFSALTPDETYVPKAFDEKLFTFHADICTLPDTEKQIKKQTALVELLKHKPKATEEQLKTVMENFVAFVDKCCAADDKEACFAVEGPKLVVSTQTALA", "assay": "CD spectroscopy, secondary structure of BSA with peptide", "set-up": "species or system bovine", "protocol": "Circular dichroism spectroscopy, similar to fluorescence and FTIR spectroscopies, is a useful method to determine the changes in the secondary structure of proteins in case of the presence of compounds that can interact with protein molecules. Therefore, in this study, the CD spectra for BSA protein and GGF fraction, in the absence and presence of analyzed peptides L1, L2, and L3, were measured (Figure 3). We wanted to check the changes in the course of the spectrum after adding every portion of the analyzed peptides, from 1:0 to 1:1.5 protein to L1–L3 molar ratios.\nCircular dichroism (CD) spectroscopy was performed using the Jasco J-1500 magnetic circular dichroism spectrometer (JASCO International CO., Tokyo, Japan). All measurements for the protein solutions in the absence and presence of the analyzed peptides L1, L2, and L3 were made at room temperature under simulated physiological conditions in pH 7.4, in phosphate buffer as a solvent. The phosphate buffer not only controls the stable pH but also imitates the biological environments. However, its use leads to some limitations for CD measurements due to containing NaCl and KCl. The spectra were baseline corrected (phosphate buffer was used as a baseline) and were measured in the range of 205–250 nm at a scan rate speed of 50 nm/min, with a response time of 1 s, and a 10 mm or 5 mm path length for BSA and GGF, respectively. The concentrations of proteins and analyzed peptides were 1 × 10^−6 mol/dm^3 and 1 × 10^−3 mol/dm^3, respectively. Experiments were performed with protein to ligand molar ratios: 1:0, 1:0.25, 1:0.5, 1:0.75, 1:1, and 1:1.5. In total, 3 cm^3 of a solution of each protein was titrated by successive additions of analyzed peptides. The results were analyzed by CD Multivariate Calibration Creation and CD Multivariate SSE programs (JASCO International CO., Tokyo, Japan), with the conversion of protein concentrations for mean residue molar concentrations."}, "[2]": {"target": "T2, bovine serum albumin (BSA) (Bos taurus, UniProt P02769)", "T2 sequence (P02769 25-607)": "as above", "assay": "Fluorescence quenching of BSA by peptides L1–3", "conditions": "for Stern–Volmer constant Ksv / logKb: BSA 1.0 µM, phosphate buffer; for Stern–Volmer constant Ksv: peptide 0.25–2.0 µM, λex 280 nm; for logKb: double log regression; for quenching rate constant kq: from Ksv with τ0 10^−8 s assumed", "protocol": "Fluorescence spectroscopy was carried out to characterize the mechanism of the interaction between three plasma proteins, BSA, AAG, and GGF, with the studied peptides. The fluorescence spectra of protein were collected during titration of L1–L3. The excitation wavelength was set at λ = 280 nm (both Trp and Tyr residues were excited).\nTo confirm this, the fluorescence data were further analyzed by the Stern–Volmer Equation (1) after correction due to the infer filter effect (2):(1) F0/F=1+kqτ[Q]=1+KSV (2) Fcorr=Fobs10^(Aex+Aem)/2 where F0 and F are the fluorescence intensities (after correction) of the protein and protein in the presence of L1–3, respectively, kq is the quenching rate constant, τ0 the average lifetime, [Q] is the L1–3 concentration, Ksv is the Stern–Volmer constant, and Fcorr, and Fobs are the corrected and observed fluorescence intensities, respectively. Aex and Aem are the absorbance values at excitation and emission wavelengths, respectively. A linear regression fit was used to calculate the value of the Stern–Volmer constant (Ksv). Then, assuming the average lifetime of the fluorophore in the excited state for a biomolecule as 10^−8 s, the quenching rate constant (kq) was computed. For dynamic quenching, the maximum scatters collision quenching rate constant for different quenchers with the biopolymers was reported to be 2 × 10^10 dm^3mol^−1s^−1 [55, 56]. […] Collisional quenching occurs when the excited-state fluorophore is deactivated by contact with some other molecule in solution (by collisions). […] This is a dynamic mechanism of quenching. The quenching constant characterizes the quenching mechanism. The maximum value for collisional quenching is 2 × 10^10 dm^3mol^−1s^−1. […] For further confirmation, measurements were made at, in addition to 297 K, temperatures 303 and 308 K. Experimental data points were fitted and analyzed using Equation (1).\nBoth for the complexes with BSA and with GGF, the binding constant (Kb) and the binding stoichiometry (n) were calculated. […] The values of Kb and n were calculated from the slope and the intercept of the log [(F0 − F)/F] versus log [Q] plot (Figure 2).\nThe forces involved in the interaction can be identified by measurement at different temperatures and then by thermodynamic analysis. The signs of the thermodynamic parameters identify the type of interactions. The enthalpy change (ΔH°), the entropic change (ΔS°), and the free energy change (ΔG°) were calculated from Equations (4) and (5):(4) […]=−ΔH^°/RT+ΔS^°/R (5) ΔG^°=ΔH^°−TΔS^°=−RTlnKb where Kb is the binding constant and R is the universal gas constant. To determine the thermodynamic parameters, the van’t Hoff plot was first conducted, i.e., the temperature dependence of the binding constant, according to Equation (4). The Kb values at the three temperatures were fitted by the linear regression method. The values of ΔH and ΔS were calculated from the slope and intercept at the fitted line. Next, the free energy change (ΔG°) was obtained from Equation (5)."}, "[3]": {"target": "T2, bovine serum albumin (BSA)", "assay": "Site-marker displacement (phenylbutazone, ibuprofen) on BSA, fluorescence", "format": "binding", "set-up": "purchased Sigma Aldrich", "conditions": "297 K, BSA 5.0 µM, marker 10.0 µM", "protocol": "To check if L1–L3 bind to BSA at the two Sudlow drug sites (site 1 and 2 [34, 60]), displacement studies were conducted by using phenylbutazone (PHB) and ibuprofen (IBP) as site probes. […] The fluorescence emission spectra of BSA and site markers during the titration of L1–L3 were recorded. The experimental data were analyzed using Equation (3). Binding constants in the presence of site markers were calculated and compared with Kb without PHB or IBP.\nConcentrations of BSA and site markers were set at 5.0 × 10^−6 and 10.0 × 10^−6 moldm^−3, respectively."}, "[4]": {"conditions": "BSA:peptide 1:0.25, pH 7.4 phosphate buffer"}, "[5]": {"conditions": "BSA:peptide 1:0.5, pH 7.4 phosphate buffer"}, "[6]": {"conditions": "BSA:peptide 1:0.75, pH 7.4 phosphate buffer"}, "[7]": {"conditions": "BSA:peptide 1:1, pH 7.4 phosphate buffer"}, "[8]": {"conditions": "BSA:peptide 1:1.5, pH 7.4 phosphate buffer"}, "[9]": {"conditions": "BSA, van't Hoff plot of Kb at 297, 303, 308 K"}}, "data": [{"substance": "Lys-Dab-Dab-Gly-Orn-Pro-His-Lys-Arg-Lys-Dbt [L1]", "values": [{"measurement": "% Other of BSA", "setting": "[1]; [4]", "result": 24.6, "unit": "%"}, {"measurement": "% β-Sheet of BSA", "setting": "[1]; [4]", "result": 6.0, "unit": "%"}, {"measurement": "% β-Turn of BSA", "setting": "[1]; [4]", "result": 10.0, "unit": "%"}, {"measurement": "% α-Helix of BSA", "setting": "[1]; BSA:peptide 1:0.25, pH 7.4 phosphate buffer, room temperature, BSA 1 µM", "result": 59.4, "unit": "%"}, {"measurement": "% Other of BSA", "setting": "[1]; [5]", "result": 24.8, "unit": "%"}, {"measurement": "% α-Helix of BSA", "setting": "[1]; [5]", "result": 59.2, "unit": "%"}, {"measurement": "% β-Sheet of BSA", "setting": "[1]; [5]", "result": 5.9, "unit": "%"}, {"measurement": "% β-Turn of BSA", "setting": "[1]; [5]", "result": 10.1, "unit": "%"}, {"measurement": "% Other of BSA", "setting": "[1]; [6]", "result": 25.0, "unit": "%"}, {"measurement": "% α-Helix of BSA", "setting": "[1]; [6]", "result": 58.6, "unit": "%"}, {"measurement": "% β-Sheet of BSA", "setting": "[1]; [6]", "result": 6.3, "unit": "%"}, {"measurement": "% β-Turn of BSA", "setting": "[1]; [6]", "result": 10.1, "unit": "%"}, {"measurement": "% Other of BSA", "setting": "[1]; [7]", "result": 25.0, "unit": "%"}, {"measurement": "% α-Helix of BSA", "setting": "[1]; [7]", "result": 58.5, "unit": "%"}, {"measurement": "% β-Sheet of BSA", "setting": "[1]; [7]", "result": 6.4, "unit": "%"}, {"measurement": "% β-Turn of BSA", "setting": "[1]; [7]", "result": 10.1, "unit": "%"}, {"measurement": "% Other of BSA", "setting": "[1]; [8]", "result": 25.1, "unit": "%"}, {"measurement": "% α-Helix of BSA", "setting": "[1]; [8]", "result": 58.2, "unit": "%"}, {"measurement": "% β-Sheet of BSA", "setting": "[1]; [8]", "result": 6.6, "unit": "%"}, {"measurement": "% β-Turn of BSA", "setting": "[1]; [8]", "result": 10.1, "unit": "%"}, {"measurement": "reduction in the percentage of α-helix of BSA", "setting": "[1]; from 1:0 to 1:1.5 BSA:peptide", "result": 2.5, "unit": "%"}, {"measurement": "number of binding sites n", "setting": "[2]; 297 K, BSA", "result": "0.80 ± 0.02"}, {"measurement": "Stern–Volmer constant Ksv", "setting": "[2]; 297 K, inner-filter corrected", "result": "1.55 ± 0.07 × 10^5 dm^3mol^−1"}, {"measurement": "logKb", "setting": "[2]; 297 K", "result": "4.07 ± 0.07"}, {"measurement": "quenching rate constant kq", "setting": "[2]; 297 K", "result": "1.55 ± 0.07 × 10^13 dm^3mol^−1s^−1"}, {"measurement": "number of binding sites n", "setting": "[2]; 303 K, BSA", "result": "0.80 ± 0.04"}, {"measurement": "Stern–Volmer constant Ksv", "setting": "[2]; 303 K", "result": "1.21 ± 0.03 × 10^5 dm^3mol^−1"}, {"measurement": "logKb", "setting": "[2]; 303 K", "result": "3.95 ± 0.09"}, {"measurement": "quenching rate constant kq", "setting": "[2]; 303 K", "result": "1.21 ± 0.03 × 10^13 dm^3mol^−1s^−1"}, {"measurement": "number of binding sites n", "setting": "[2]; 308 K, BSA", "result": "0.80 ± 0.02"}, {"measurement": "Stern–Volmer constant Ksv", "setting": "[2]; 308 K", "result": "0.70 ± 0.06 × 10^5 dm^3mol^−1"}, {"measurement": "logKb", "setting": "[2]; 308 K", "result": "3.72 ± 0.15"}, {"measurement": "quenching rate constant kq", "setting": "[2]; 308 K", "result": "0.70 ± 0.06 × 10^13 dm^3mol^−1s^−1"}, {"measurement": "ΔG°", "setting": "[2]; BSA, from ΔH° − TΔS°", "result": "−23 ± 1", "unit": "kJmol^−1"}, {"measurement": "ΔH°", "setting": "[2]; [9]", "result": "−54 ± 2", "unit": "kJmol^−1"}, {"measurement": "ΔS°", "setting": "[2]; [9]", "result": "−106 ± 3", "unit": "Jmol^−1K^−1"}, {"measurement": "logKb", "setting": "[3]; BSA + IBP (site II)", "result": "4.03 ± 0.15"}, {"measurement": "logKb", "setting": "[3]; BSA + PHB (site I)", "result": "4.00 ± 0.12"}]}]}
